Results reported in patent US5252558A, “Pentapeptide having specific inhibiting effect on epidermal cell proliferation, the salts thereof, pharmaceutical compositions comprising the same and a process for the preparation of the pentapeptide and the pharmaceutical compositions” (Richter Gedeon Vegyeszeti Gyar RT, priority 1990, dated 1993).
Residues, ends and D or L forms follow the SMILES beside them. *: point of attachment. X1 = O=C1CCC[C@@H](C(=O)*)N1

Test system: cytoblastic medulla cells
Assay: 51Cr-emission test (in vitro toxicity)
Type: cell-based, rat
Protocol: The in vitro toxicity of the new compound was examined by ^51 Cr emission test.
6×10^7 cytoblastic medulla cells to be labelled were centrifuged (1000 rotations/minute for 7 minutes), then the cells were suspended in 1 ml of TC-199 Parker medium (product of OKI) and incubated with ^51 Cr ray source of an activity of 3.7×10^7 Bq (1 mCi) at a temperature of 37° C. for 1 hour, then the labelled cells were washed with 60 ml of medium. When the evaluation was carried out, the cell suspension was centrifuged after the treatment with the oligopeptide and the radioactivity of the supernatant was measured.
When the ^51 Cr emission test was evaluated, the cell suspension was treated with the oligopeptide and centrifuged, then the activity of the supernatant was determined by a Packard apparatus.

For `O=C(O)CC[C@H](NC(=O)[C@@H]1CCCC(=O)N1)C(=O)N[C@@H](CC(=O)O)C(=O)N[C@@H](CO)C(=O)NCC(=O)O` [pAad-EI, Xaa Glu Asp Ser Gly] (X1-EDSG-OH), the “51Cr-emission of cytoblastic medulla cells, cpm” value (concentration = 10^-8 mole/l, control 155,849) was 148,303 cpm and the “toxicity by 51Cr emission (in words)” value (isotope emission compared to the control) was “not toxic”.
